According to article PMC5218480 (PLoS ONE, 2017):

Test system: MV-4-11 cells
Test: Gene expression microarray analysis (Affymetrix PrimeView) and GSEA
Format: cell-based, human
Design: RFU PODN (11730768_x_at) / Fold change /veh PODN (11730768_x_at) / RFU LINC00158 (11744669_a_at) / Fold change /veh LINC00158 (11744669_a_at) / RFU DUSP10 (11751237_a_at) / Fold change /veh DUSP10 (11751237_a_at) / RFU ID3 (11757404_x_at) / Fold change /veh ID3 (11757404_x_at) / RFU PLEKHG5 (11737974_s_at) / Fold change /veh PLEKHG5 (11737974_s_at) / RFU LRRC4B (11730491_at) / Fold change /veh LRRC4B (11730491_at) / RFU GIMAP4 (11747438_a_at) / Fold change /veh GIMAP4 (11747438_a_at) / RFU KRT8 (11758183_x_at) / Fold change /veh KRT8 (11758183_x_at) / RFU CNN1 (11734310_a_at) / Fold change /veh CNN1 (11734310_a_at) / RFU VPS37D (11726825_at) / Fold change /veh VPS37D (11726825_at) / RFU C10orf10 (11716522_x_at) / Fold change /veh C10orf10 (11716522_x_at) / RFU KIR2DL2 /// KIR2DL4 /// KIR2DL5A /// KIR2DL5B /// KIR2DS1 /// KIR2DS2 /// KIR2DS3 /// KIR2DS4 /// KIR3DL3 /// KIR3DL3 /// KIR3DS1 (11738374_at) / Fold change /veh KIR2DL2 /// KIR2DL4 /// KIR2DL5A /// KIR2DL5B /// KIR2DS1 /// KIR2DS2 /// KIR2DS3 /// KIR2DS4 /// KIR3DL3 /// KIR3DL3 /// KIR3DS1 (11738374_at) / RFU C1QL1 (11718748_at) / Fold change /veh C1QL1 (11718748_at) / RFU TMPRSS4 (11747572_a_at) / Fold change /veh TMPRSS4 (11747572_a_at) / RFU HAMP (11756126_x_at) / Fold change /veh HAMP (11756126_x_at) / RFU RNFT2 (11725882_a_at) / Fold change /veh RNFT2 (11725882_a_at) / RFU NR4A2 (11747474_a_at) / Fold change /veh NR4A2 (11747474_a_at) / RFU ABCC12 (11746883_a_at) / Fold change /veh ABCC12 (11746883_a_at) / RFU TMEM136 (11760407_x_at) / Fold change /veh TMEM136 (11760407_x_at) / RFU CLDN22 /// WWC2 (11732394_at) / Fold change /veh CLDN22 /// WWC2 (11732394_at) / RFU HLA-DPB1 (11760878_x_at) / Fold change /veh HLA-DPB1 (11760878_x_at) / RFU SPINT1 (11716480_a_at) / Fold change /veh SPINT1 (11716480_a_at) / RFU GAP43 (11754022_s_at) / Fold change /veh GAP43 (11754022_s_at) / RFU A4GNT (11735810_at) / Fold change /veh A4GNT (11735810_at) / RFU PRB3 (11715151_x_at) / Fold change /veh PRB3 (11715151_x_at) / RFU TUBB4B (11761932_at) / Fold change /veh TUBB4B (11761932_at) / RFU CAPN14 (11732068_a_at) / Fold change /veh CAPN14 (11732068_a_at) / RFU TMCC2 (11721928_a_at) / Fold change /veh TMCC2 (11721928_a_at) / RFU IRGQ (11745062_a_at) / Fold change /veh IRGQ (11745062_a_at) / RFU FAM174B (11720279_a_at) / Fold change /veh FAM174B (11720279_a_at) / RFU TMPRSS4 (11748680_a_at) / Fold change /veh TMPRSS4 (11748680_a_at) / RFU FAM212B (11763350_a_at) / Fold change /veh FAM212B (11763350_a_at) / RFU PLEKHG5 (11743358_a_at) / Fold change /veh PLEKHG5 (11743358_a_at) / RFU ZSCAN30 (11745921_a_at) / Fold change /veh ZSCAN30 (11745921_a_at) / RFU CMKLR1 (11741424_a_at) / Fold change /veh CMKLR1 (11741424_a_at) / RFU LOC101060620 /// MAPK8IP1 (11723275_at) / Fold change /veh LOC101060620 /// MAPK8IP1 (11723275_at) / RFU SPTSSB (11747773_x_at) / Fold change /veh SPTSSB (11747773_x_at) / RFU PRSS12 (11739890_at) / Fold change /veh PRSS12 (11739890_at) / RFU BIN1 (11741810_x_at) / Fold change /veh BIN1 (11741810_x_at) / RFU WNT11 (11732464_a_at) / Fold change /veh WNT11 (11732464_a_at) / RFU C10orf10 (11716521_a_at) / Fold change /veh C10orf10 (11716521_a_at) / RFU C5orf56 (11738089_at) / Fold change /veh C5orf56 (11738089_at) / RFU CYB561 (11721691_x_at) / Fold change /veh CYB561 (11721691_x_at) / RFU ANKRD19P (11752326_a_at) / Fold change /veh ANKRD19P (11752326_a_at) / RFU OR2T12 /// OR2T33 /// OR2T8 (11738714_s_at) / Fold change /veh OR2T12 /// OR2T33 /// OR2T8 (11738714_s_at) / RFU VCAN (11748164_a_at) / Fold change /veh VCAN (11748164_a_at) / RFU JSRP1 (11732532_at) / Fold change /veh JSRP1 (11732532_at) / RFU KRTAP10-11 (11738290_x_at) / Fold change /veh KRTAP10-11 (11738290_x_at) / RFU MYO3A (11730013_a_at) / Fold change /veh MYO3A (11730013_a_at) / RFU EBF3 (11725865_a_at) / Fold change /veh EBF3 (11725865_a_at) / RFU CAMK2N1 (11719241_x_at) / Fold change /veh CAMK2N1 (11719241_x_at) / RFU C5orf56 (11738088_a_at) / Fold change /veh C5orf56 (11738088_a_at) / RFU OLFML3 (11715873_a_at) / Fold change /veh OLFML3 (11715873_a_at) / RFU LOC100653217 /// NTM (11731650_a_at) / Fold change /veh LOC100653217 /// NTM (11731650_a_at) / RFU MAPK11 (11762145_a_at) / Fold change /veh MAPK11 (11762145_a_at) / RFU FIZ1 (11724087_x_at) / Fold change /veh FIZ1 (11724087_x_at) / RFU OASL (11726364_x_at) / Fold change /veh OASL (11726364_x_at) / RFU SOX15 (11748057_x_at) / Fold change /veh SOX15 (11748057_x_at) / RFU CD79A (11719716_a_at) / Fold change /veh CD79A (11719716_a_at) / RFU HIST1H1D (11736915_at) / Fold change /veh HIST1H1D (11736915_at) / RFU CASKIN2 (11723855_a_at) / Fold change /veh CASKIN2 (11723855_a_at) / RFU LOC730098 (11760151_x_at) / Fold change /veh LOC730098 (11760151_x_at) / RFU OR4N2 (11742367_at) / Fold change /veh OR4N2 (11742367_at) / RFU PRRT2 (11749266_a_at) / Fold change /veh PRRT2 (11749266_a_at) / RFU SNX32 (11753110_a_at) / Fold change /veh SNX32 (11753110_a_at) / RFU CDHR5 (11726645_a_at) / Fold change /veh CDHR5 (11726645_a_at) / RFU RCAN1 (11760418_a_at) / Fold change /veh RCAN1 (11760418_a_at) / RFU FAM167A (11723789_a_at) / Fold change /veh FAM167A (11723789_a_at) / RFU FAM26E (11764081_at) / Fold change /veh FAM26E (11764081_at) / RFU ISYNA1 (11749810_s_at) / Fold change /veh ISYNA1 (11749810_s_at) / RFU ACY1 (11761880_at) / Fold change /veh ACY1 (11761880_at) / RFU 11764098_at / Fold change /veh 11764098_at / RFU SAMD14 (11745864_x_at) / Fold change /veh SAMD14 (11745864_x_at) / RFU NPB (11741838_a_at) / Fold change /veh NPB (11741838_a_at) / RFU TMPRSS6 (11731388_a_at) / Fold change /veh TMPRSS6 (11731388_a_at) / RFU KRTAP10-2 (11738614_at) / Fold change /veh KRTAP10-2 (11738614_at) / RFU ARHGAP8 /// PRR5-ARHGAP8 (11727945_x_at) / Fold change /veh ARHGAP8 /// PRR5-ARHGAP8 (11727945_x_at) / RFU KRTAP5-7 /// NADSYN1 (11734609_at) / Fold change /veh KRTAP5-7 /// NADSYN1 (11734609_at) / RFU RASL12 (11751679_a_at) / Fold change /veh RASL12 (11751679_a_at) / RFU CDKN2B (11736163_a_at) / Fold change /veh CDKN2B (11736163_a_at) / RFU PRF1 (11729649_at) / Fold change /veh PRF1 (11729649_at) / RFU, ZNF638 /// ZNF638-IT1 / Fold change vs veh, ZNF638 /// ZNF638-IT1 / RFU, PANK3 / Fold change vs veh, PANK3 / RFU, SH3YL1 / Fold change vs veh, SH3YL1 / RFU, ZEB2 / Fold change vs veh, ZEB2 / RFU, NRIP1 / Fold change vs veh, NRIP1 / RFU, PTTG1IP / Fold change vs veh, PTTG1IP / RFU, CAPN2 / Fold change vs veh, CAPN2 / RFU, MED14 / Fold change vs veh, MED14 / RFU, SNORA58 / Fold change vs veh, SNORA58 / RFU, C1orf63 / Fold change vs veh, C1orf63 / RFU, LRRFIP1 / Fold change vs veh, LRRFIP1 / RFU, NDUFAF7 / Fold change vs veh, NDUFAF7 / RFU, SLC12A2 / Fold change vs veh, SLC12A2 / RFU, IBTK / Fold change vs veh, IBTK / RFU, ESF1 / Fold change vs veh, ESF1 / Fold change vs veh, TMEM50B / RFU, TAOK1 / Fold change vs veh, TAOK1 / RFU, ACBD3 / Fold change vs veh, ACBD3 / RFU, TMA16 / Fold change vs veh, TMA16 / RFU, RWDD3 / Fold change vs veh, RWDD3 / RFU, BCAT1 / Fold change vs veh, BCAT1 / RFU, EDEM3 / Fold change vs veh, EDEM3 / RFU, TMEM33 / Fold change vs veh, TMEM33 / RFU, WDR75 / Fold change vs veh, WDR75 / RFU, AHCTF1 / Fold change vs veh, AHCTF1 / RFU, TFRC / Fold change vs veh, TFRC / RFU, ZDHHC17 / Fold change vs veh, ZDHHC17 / RFU, NOM1 / Fold change vs veh, NOM1 / RFU, ARL8B / Fold change vs veh, ARL8B / RFU, ZBTB11 / Fold change vs veh, ZBTB11 / RFU, TAMM41 / Fold change vs veh, TAMM41 / RFU, KIAA1704 /// LOC100996395 / Fold change vs veh, KIAA1704 /// LOC100996395 / RFU, ING1 / Fold change vs veh, ING1 / RFU, TRMT61B / Fold change vs veh, TRMT61B / RFU, FUBP3 / Fold change vs veh, FUBP3 / RFU, TP53 / Fold change vs veh, TP53 / RFU, TNKS2 / Fold change vs veh, TNKS2 / RFU, ZFP14 / Fold change vs veh, ZFP14 / RFU, ACTR2 / Fold change vs veh, ACTR2 / RFU, PPP3R1 / Fold change vs veh, PPP3R1 / RFU, PIK3R1 / Fold change vs veh, PIK3R1 / RFU, HNRNPA1 / Fold change vs veh, HNRNPA1 / RFU, RNF170 / Fold change vs veh, RNF170 / RFU, ZNF28 / Fold change vs veh, ZNF28 / RFU, RNGTT / Fold change vs veh, RNGTT / RFU, OGT / Fold change vs veh, OGT / RFU, BRD1 / Fold change vs veh, BRD1 / RFU, MARS / Fold change vs veh, MARS / RFU, ZNF655 / Fold change vs veh, ZNF655 / RFU, FAHD1 / Fold change vs veh, FAHD1 / RFU, BDP1 / Fold change vs veh, BDP1 / RFU, LRRCC1 / Fold change vs veh, LRRCC1 / RFU, ARID1A / Fold change vs veh, ARID1A / RFU, ZNF146 / Fold change vs veh, ZNF146 / RFU, ZNF330 / Fold change vs veh, ZNF330 / RFU, GPN3 / Fold change vs veh, GPN3 / RFU, C9orf123 / Fold change vs veh, C9orf123 / RFU, N4BP2L2 / Fold change vs veh, N4BP2L2 / RFU, ARFIP1 / Fold change vs veh, ARFIP1 / RFU, FAM179B / Fold change vs veh, FAM179B / RFU, BCL10 / Fold change vs veh, BCL10 / RFU, UHRF1BP1L / Fold change vs veh, UHRF1BP1L / RFU, BET1 / Fold change vs veh, BET1 / RFU, CNOT2 / Fold change vs veh, CNOT2 / RFU, ZNF268 / Fold change vs veh, ZNF268 / Fold change vs veh, ZNF507 / RFU, DGCR2 / Fold change vs veh, DGCR2 / RFU, WDSUB1 / Fold change vs veh, WDSUB1 / Fold change vs veh, HSP90B1 /// MIR3652 / RFU, ADSS / Fold change vs veh, ADSS / RFU, GK / Fold change vs veh, GK / RFU, ZNF148 / Fold change vs veh, ZNF148 / RFU, TAF9 / Fold change vs veh, TAF9 / RFU, SLC1A5 / Fold change vs veh, SLC1A5 / RFU, SLMO2 / Fold change vs veh, SLMO2 / RFU, ABCC4 / Fold change vs veh, ABCC4 / RFU, LOC101060439 /// RAP1B / Fold change vs veh, LOC101060439 /// RAP1B / RFU, RFX7 / Fold change vs veh, RFX7 / RFU, GTPBP10 / Fold change vs veh, GTPBP10 / RFU, CNEP1R1 / Fold change vs veh, CNEP1R1 / RFU, BIVM-ERCC5 /// ERCC5 / Fold change vs veh, BIVM-ERCC5 /// ERCC5 / RFU, ILF3 / Fold change vs veh, ILF3 / RFU 11762660_at / Fold change /veh 11762660_at / RFU VCAN (11757783_s_at) / Fold change /veh VCAN (11757783_s_at) / RFU DDX43 (11728927_at) / Fold change /veh DDX43 (11728927_at) / RFU KRT8 (11758188_x_at) / Fold change /veh KRT8 (11758188_x_at) / RFU NKD1 (11759106_at) / Fold change /veh NKD1 (11759106_at) / RFU SRD5A1 (11742802_a_at) / Fold change /veh SRD5A1 (11742802_a_at) / RFU TPSAB1 /// TPSB2 (11721975_s_at) / Fold change /veh TPSAB1 /// TPSB2 (11721975_s_at) / RFU GSTM3 (11746129_a_at) / Fold change /veh GSTM3 (11746129_a_at) / RFU IL23R (11737362_x_at) / Fold change /veh IL23R (11737362_x_at) / RFU TMEM51 (11727254_a_at) / Fold change /veh TMEM51 (11727254_a_at) / RFU PIWIL2 (11732686_x_at) / Fold change /veh PIWIL2 (11732686_x_at) / RFU ORM1 (11744905_x_at) / Fold change /veh ORM1 (11744905_x_at) / RFU CCDC152 (11743942_at) / Fold change /veh CCDC152 (11743942_at) / RFU ECM1 (11717891_a_at) / Fold change /veh ECM1 (11717891_a_at) / RFU IL23R (11748794_a_at) / Fold change /veh IL23R (11748794_a_at) / RFU TNFAIP8L3 (11732012_x_at) / Fold change /veh TNFAIP8L3 (11732012_x_at) / RFU MBOAT4 (11741988_at) / Fold change /veh MBOAT4 (11741988_at) / RFU 11764193_at / Fold change /veh 11764193_at / RFU TMEM53 (11763286_at) / Fold change /veh TMEM53 (11763286_at) / RFU MAGEB2 (11727129_at) / Fold change /veh MAGEB2 (11727129_at) / RFU TMEM200A (11744735_a_at) / Fold change /veh TMEM200A (11744735_a_at) / RFU CCDC152 (11751479_a_at) / Fold change /veh CCDC152 (11751479_a_at) / RFU FAM211A (11726209_a_at) / Fold change /veh FAM211A (11726209_a_at) / RFU RGS16 (11746705_a_at) / Fold change /veh RGS16 (11746705_a_at) / RFU VCAN (11755009_s_at) / Fold change /veh VCAN (11755009_s_at) / RFU RHOB (11743442_s_at) / Fold change /veh RHOB (11743442_s_at) / RFU RGS16 (11720943_a_at) / Fold change /veh RGS16 (11720943_a_at) / RFU RGS16 (11720944_at) / Fold change /veh RGS16 (11720944_at) / RFU, VPS4B / Fold change vs veh, VPS4B / RFU, CREB1 / Fold change vs veh, CREB1 / RFU, DNAJC13 / Fold change vs veh, DNAJC13 / RFU, GNAQ / Fold change vs veh, GNAQ / RFU, CDK5R1 / Fold change vs veh, CDK5R1 / RFU, ZRANB3 / Fold change vs veh, ZRANB3 / RFU, CUL4A / Fold change vs veh, CUL4A / RFU, CCNY / Fold change vs veh, CCNY / RFU, UFL1 / Fold change vs veh, UFL1 / RFU, COG3 / Fold change vs veh, COG3 / RFU, DIAPH2 / Fold change vs veh, DIAPH2 / RFU, SKA2 / Fold change vs veh, SKA2 / RFU, AFF3 / Fold change vs veh, AFF3 / RFU, LMF1 / Fold change vs veh, LMF1 / RFU, IPO11 / Fold change vs veh, IPO11 / RFU, DFFB / Fold change vs veh, DFFB / RFU, FOXP1 / Fold change vs veh, FOXP1 / RFU, CARD8 / Fold change vs veh, CARD8 / RFU, STRN3 / Fold change vs veh, STRN3 / RFU, ADK / Fold change vs veh, ADK / RFU, RASSF2 / Fold change vs veh, RASSF2 / RFU, WIPF1 / Fold change vs veh, WIPF1 / RFU, LARP1B / Fold change vs veh, LARP1B / RFU, RASA1 / Fold change vs veh, RASA1 / RFU, RB1 / Fold change vs veh, RB1 / RFU, PPFIA1 / Fold change vs veh, PPFIA1 / RFU, MAT2A / Fold change vs veh, MAT2A / RFU, CCT5 / Fold change vs veh, CCT5 / RFU, WDR92 / Fold change vs veh, WDR92 / RFU, CUX1 / Fold change vs veh, CUX1 / RFU, TTC7A / Fold change vs veh, TTC7A / RFU, TMEM135 / Fold change vs veh, TMEM135 / RFU, DEPTOR / Fold change vs veh, DEPTOR / RFU, CPM / Fold change vs veh, CPM / RFU, DNAJB6 / Fold change vs veh, DNAJB6 / RFU, CACNA2D3 / Fold change vs veh, CACNA2D3 / RFU, DTX4 / Fold change vs veh, DTX4 / RFU, TFCP2 / Fold change vs veh, TFCP2 / RFU, GMCL1 /// GMCL1P1 / Fold change vs veh, GMCL1 /// GMCL1P1 / RFU, AEBP2 / Fold change vs veh, AEBP2 / RFU, SNHG1 /// SNORD22 /// SNORD25 /// SNORD26 /// SNORD27 /// SNORD28 /// SNORD29 /// SNORD31 / Fold change vs veh, SNHG1 /// SNORD22 /// SNORD25 /// SNORD26 /// SNORD27 /// SNORD28 /// SNORD29 /// SNORD31 / Fold change (Aza/veh), C12orf56 (ProbeSet 11735607_a_at) / Fold change (ACY-1035/veh), C12orf56 (ProbeSet 11735607_a_at) / Fold change (Aza/veh), FGFR1OP (ProbeSet 11751329_s_at) / Fold change (ACY-1035/veh), FGFR1OP (ProbeSet 11751329_s_at) / Fold change (Aza/veh), VPS36 (ProbeSet 11739960_a_at) / Fold change (ACY-1035/veh), VPS36 (ProbeSet 11739960_a_at) / RFU SYPL1 (11715823_x_at) / Fold change /veh SYPL1 (11715823_x_at) / RFU IGFBP7 (11715501_s_at) / Fold change /veh IGFBP7 (11715501_s_at) / RFU REEP3 (11722064_at) / Fold change /veh REEP3 (11722064_at) / RFU IGLL1 (11728026_x_at) / Fold change /veh IGLL1 (11728026_x_at): dose or concentration left out as unconfirmed
Details: MV-4-11 cells, 48 hours

## Nc1ncn([C@@H]2O[C@H](CO)[C@@H](O)[C@H]2O)c(=O)n1 [azacitidine]
  RFU CD79A (11719716_a_at): 8.73 RFU
